Results reported in publication PMC11092803, “Heme allocation in eukaryotic cells relies on mitochondrial heme export through FLVCR1b to cytosolic GAPDH” (Research Square, 2024).

Biological target: T1, IDO1 (Homo sapiens, UniProt P14902)
T1 construct: full-length with FLAG tag, expressed in HEK293T cells; immunoprecipitated for 14C-heme count
Assay: L-kynurenine in culture medium, p-dimethylaminobenzaldehyde colorimetry at […] nm
Format: cell-based
Conditions: intact HEK293T cells expressing IDO1; L-Trp 2 mM, with or without δ-ALA and ferric citrate, 5 h

T1 sequence (P14902 whole entry): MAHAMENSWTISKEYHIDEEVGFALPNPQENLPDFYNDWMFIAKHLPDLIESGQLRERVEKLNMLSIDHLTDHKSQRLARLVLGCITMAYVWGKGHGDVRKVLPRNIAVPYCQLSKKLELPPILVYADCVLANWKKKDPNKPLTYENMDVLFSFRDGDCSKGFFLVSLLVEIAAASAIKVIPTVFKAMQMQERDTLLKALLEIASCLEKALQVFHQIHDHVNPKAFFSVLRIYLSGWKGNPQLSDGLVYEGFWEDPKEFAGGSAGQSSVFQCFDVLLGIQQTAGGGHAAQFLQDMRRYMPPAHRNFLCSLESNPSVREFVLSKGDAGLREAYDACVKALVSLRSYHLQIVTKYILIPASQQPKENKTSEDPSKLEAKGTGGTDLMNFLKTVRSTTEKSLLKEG

N[C@@H](Cc1c[nH]c2ccccc12)C(=O)O [L-Trp]
L-kynurenine in culture medium, p-dimethylaminobenzaldehyde colorimetry at 492 n: IDO1 activity was determined by colorimetric measure of the accumulated L-Kynurenine product
